Measurements taken from the supplement of paper PMC10307832.

What was measured:
Test in all cases: relative viability (nuclei count vs DMSO), 5 days (fraction); higher = more cells survive
[1] = compound: C1=CC2=NC=CN=C2C=C1/C=C/3\C(=O)NC(=O)S3 + Cc1nc(Nc2ncc(C(=O)Nc3c(C)cccc3Cl)s2)cc(N2CCN(CCO)CC2)n1 [Dasatinib] (partner 0.075 µM)
Outline: (§1)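 Lung cancer cell lines, seeded in 1536-well plates, were treated the following day by pin tool with a single drug or with five library-drug doses (not always all listed) in √10 steps on top of a fixed anchor-drug dose. Cells were fixed and nuclei stained in one step after 5 days, and nuclei were counted. Relative viability is the nuclei count for treated wells divided by that for vehicle wells, reported as medians of duplicate plates.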

[2] = compound: C1=CC2=NC=CN=C2C=C1/C=C/3\C(=O)NC(=O)S3 + Nc1nc2[nH]cc(CCc3ccc(C(=O)N[C@@H](CCC(=O)O)C(=O)O)cc3)c2c(=O)[nH]1 [Pemetrexed] (partner 0.2 µM)
Outline: as §1

BGJ398 + Lapatinib = compound: CCN1CCN(c2ccc(Nc3cc(N(C)C(=O)Nc4c(Cl)c(OC)cc(OC)c4Cl)ncn3)cc2)CC1 [BGJ398] + CS(=O)(=O)CCNCc1ccc(-c2ccc3ncnc(Nc4ccc(OCc5cccc(F)c5)c(Cl)c4)c3c2)o1 [Lapatinib] (partner 2 µM)
Outline: as §1

[3] = compound: C1=CC2=NC=CN=C2C=C1/C=C/3\C(=O)NC(=O)S3 + C[C@]1(O)C[C@@H](c2nc(-c3ccc4ccc(-c5ccccc5)nc4c3)c3c(N)nccn32)C1 [Linsitinib] (partner 1 µM)
Outline: as §1

| Cell Line | relative viability ([1]; first compound 0.02 µM) | relative viability ([1]; first compound 0.06325 µM) | relative viability ([1]; first compound 0.2 µM) | relative viability ([1]; first compound 0.6325 µM) | relative viability ([1]; first compound 2 µM) | relative viability ([2]; first compound 0.02 µM) | relative viability ([2]; first compound 0.06325 µM) | relative viability ([2]; first compound 0.2 µM) | relative viability ([2]; first compound 0.6325 µM) | relative viability ([2]; first compound 2 µM) | relative viability (BGJ398 + Lapatinib; first compound 0.01 µM) | relative viability (BGJ398 + Lapatinib; first compound 0.03162 µM) | relative viability (BGJ398 + Lapatinib; first compound 0.1 µM) | relative viability (BGJ398 + Lapatinib; first compound 0.3162 µM) | relative viability (BGJ398 + Lapatinib; first compound 1 µM) | relative viability ([3]; first compound 0.02 µM) | relative viability ([3]; first compound 0.06325 µM) | relative viability ([3]; first compound 0.2 µM) | relative viability ([3]; first compound 0.6325 µM) | relative viability ([3]; first compound 2 µM) |
| --- | --- | --- | --- | --- | --- | --- | --- | --- | --- | --- | --- | --- | --- | --- | --- | --- | --- | --- | --- | --- |
| NCI-H2342 | 0.305 | 0.315 | 0.334 | 0.309 | 0.283 | 0.615 | 0.859 | 0.713 | 0.759 | 0.644 | – | – | – | – | – | – | – | – | – | – |
| SK-MES-1 | 0.456 | 0.267 | 0.375 | 0.339 | 0.211 | 0.99 | 1.01 | 0.953 | 0.884 | 0.837 | 0.414 | 0.44 | 0.448 | 0.396 | 0.376 | 1.04 | 1.25 | 1.09 | 0.95 | 1.04 |
| HCC-366 | 0.613 | – | 0.645 | 0.552 | 0.0998 | 0.117 | – | 0.163 | 0.164 | 0.21 | 1.11 | 1.07 | 1.07 | 1.06 | 0.924 | 0.636 | 0.832 | 0.734 | 0.501 | 0.638 |
| 201T | 0.543 | 0.619 | 0.583 | 0.556 | 0.28 | 0.316 | 0.346 | 0.363 | 0.348 | 0.312 | 1.14 | 1.02 | 0.997 | 1.02 | 0.697 | 0.807 | 1.07 | 0.997 | 0.949 | 1.01 |
| HCC-827 | 0.338 | 0.194 | 0.267 | 0.301 | 0.266 | 0.246 | 0.265 | 0.266 | 0.268 | 0.274 | 0.244 | – | 0.163 | 0.173 | 0.2 | 0.944 | 0.928 | 1 | 0.935 | 0.884 |
| NCI-H647 | 0.173 | 0.259 | 0.256 | 0.149 | 0.103 | 0.162 | 0.19 | 0.168 | 0.178 | 0.182 | 1.03 | 1.11 | 1.21 | 0.949 | 1.06 | 1.13 | 1.51 | 1.41 | 1.1 | 1.08 |
| NCI-H2023 | 0.5 | 0.55 | 0.582 | 0.446 | 0.246 | 0.251 | 0.269 | 0.24 | 0.214 | 0.182 | 0.766 | 0.872 | 0.743 | 0.894 | 0.742 | 0.626 | 0.787 | 0.611 | 0.568 | 0.632 |
| NCI-H520 | 0.181 | 0.229 | 0.217 | 0.161 | 0.151 | 0.684 | 0.726 | 0.71 | 0.783 | 0.711 | 0.747 | 0.722 | 0.661 | 0.339 | 0.281 | 0.931 | 1.15 | 1.11 | 0.969 | 1.03 |
| RERF-LC-KJ | 0.621 | 0.911 | 0.933 | 0.654 | 0.66 | 0.525 | 0.501 | 0.465 | 0.489 | 0.455 | 0.86 | 0.88 | 0.908 | 0.924 | 0.724 | 0.82 | 1.03 | 0.894 | 0.811 | 0.853 |
| A-427 | 0.685 | 0.753 | 0.692 | 0.659 | 0.541 | 0.963 | 1.03 | 0.959 | 0.96 | 0.903 | 1.07 | 1.01 | 1.05 | 0.938 | 0.949 | 1.07 | 1.16 | 1.12 | 1.14 | 1.07 |
| NCI-H441 | 0.797 | 0.526 | 0.7 | 0.573 | 0.281 | 0.25 | 0.276 | 0.307 | 0.229 | 0.253 | – | – | – | – | – | 0.473 | 0.399 | 0.653 | 0.57 | 0.508 |
| NCI-H1703 | – | – | – | – | – | – | – | – | – | – | 0.988 | 1.32 | 1.04 | 1.05 | 1.36 | 1.04 | 1.13 | 1.1 | 0.696 | 0.741 |
| NCI-H1792 | 0.763 | 0.653 | 0.807 | 0.818 | 0.311 | 0.755 | – | 0.756 | 0.831 | 0.47 | 0.928 | 0.874 | 0.999 | 0.909 | 0.756 | 0.519 | 0.309 | 0.557 | 0.456 | 0.593 |
| Calu-6 | – | – | – | – | – | – | – | – | – | – | 1.04 | 1.13 | 1.07 | 1.09 | 1.03 | 0.946 | 1.13 | 1.05 | 0.899 | 0.876 |
| SK-LU-1 | 0.196 | 0.196 | 0.2 | 0.19 | 0.0971 | 1.03 | 1.1 | 1.02 | 0.967 | 0.798 | 0.878 | 1.07 | 0.979 | 0.702 | 0.945 | 1.2 | 1.22 | 1.15 | 1.06 | 0.989 |
| PC-3 [JPC-3] | 0.84 | 1.05 | 0.968 | 1.01 | 0.821 | 1.19 | 1.17 | 1.2 | 1.19 | 1.23 | 0.44 | – | 0.412 | 0.478 | 0.348 | 0.889 | 1.01 | 0.879 | 0.923 | 0.963 |
| EMC-BAC-2 | 0.309 | 0.297 | 0.33 | 0.322 | 0.224 | 0.402 | 0.424 | 0.44 | 0.434 | 0.417 | 0.872 | 0.982 | 0.899 | 0.832 | 0.838 | 0.765 | 0.906 | 0.822 | 0.808 | 0.869 |
| LK-2 | 0.291 | 0.349 | 0.306 | 0.297 | 0.189 | 0.198 | 0.326 | 0.276 | 0.267 | 0.148 | 0.887 | 0.754 | 0.488 | 0.352 | 0.26 | 0.68 | 0.523 | 0.69 | 0.644 | 0.516 |
